Source: US20100048714A1, “Methods and Compositions Related to Inhibition of Ceramide Synthesis” (University of Utah Research Foundation, priority 2006, published 2010)

Columns and labels:
[1] = test system: Zucker Diabetic Fatty (ZDF) rats; experiment: Myriocin treatment of Zucker Diabetic Fatty rats; format: in vivo, rat
soleus muscles = experiment: Isolated soleus muscle strips incubated with free fatty acids; settings: cycloserine 1 mM or myriocin 10 μM
Sprague dawley rats = experiment: Hyperinsulinemic euglycemic clamps of dexamethasone treated rats; format: in vivo, rat; settings: for Insulin, During Clamp / FFA / Glucose, Before Clamp / Insulin, Before Clamp: plasma, mean ± standard error, n=4; for Insulin, During Clamp: steady state; for FFA: Before Clamp by layout
Description: (A) Sprague-Dawley rats were treated with myriocin (300 μg/Kg, IP, solid bars) or saline (open bars) for two weeks prior to giving administering dexamethasone (40 μg/Kg, IP) or vehicle (5% ethanol) every 12 hours for 36 hours. Animals were euthanized by CO2 inhalation, livers were removed, and ceramide levels were assessed as described in SOM-Methods. Shown are mean ceramide levels+/−S.E.M, n=6 per group. The asterisk denotes that the sample was statistically different from vehicle-treated controls, p<0.05, student's t-test. (B) Livers were obtained as in A, above, and protein and mRNA were extracted as described in SOM-Methods. Levels of transcripts (solid bars) encoding serine palimitoyl transferase isoforms 1 and 2 (SPT1 and SPT2), dihydroceramide synthases (DCS) TL1, UOG, and TRH3, glucosylceramide synthase (GCS), and acid ceramidase (AC) transcripts were obtained by reverse-transcriptase polymerase chain reaction, normalized to β-actin. SPT2 protein levels (white bars) were detected by immunoblotting with an antibody from Cayman Chemicals (Ann Arbor, Mich.) and quantified on a Kodak Image Station 2000R (Rochester, N.Y.). Data represent the fold-change in transcript or protein in dexamethasone-treated animals relative to vehicle controls. […] (C and D) Rats were challenged with glucose (1 g/kg) given intraperitoneally (IP) following treatment with dexamethasone (squares), ethanol carrier (triangles), myriocin (open shapes), or saline (solid shapes) as in A, above. Tail vein blood (3 μl) was sampled for glucose (C)(using the Glucometer Elite from Bayer Corp., Tarrytown, N.Y.) or insulin (D) (using an Elisa kit from Linco Diagnostics, Springfield, Mo.). […] (E-G) Hyperinsulinemic euglycemic clamps were performed on animals (n=4 per group) treated as in A, above, as described in SOM-Methods. Data from animals receiving myriocin are depicted in solid bars. (E) The glucose infusion rate required to maintain normal glycemia during insulin infusion ([…]) was calculated as the average infusion rate during the 60 minute steady state. (F) Hepatic glucose output was estimated by the disappearance of [^14C] glucose from a bolus dose given during the steady state minus the glucose infusion rate. (G) Disappearance of a bolus dose of [^3H] 2-deoxyglucose from the bloodstream was used to estimate the rate of whole body glucose uptake.
To definitively evaluate effects on insulin sensitivity, as well as to distinguish whether the treatment protocols differentially affected glucose uptake in skeletal muscle or hepatic output by the liver, hyperinsulinemic-euglycemic clamps with D-[U-^14C] glucose and 2-deoxy-D-[2,6-^3H] glucose tracers were performed.
Clamps were performed in conscious unrestrained animals using swivels and tethers (Instech, Plymouth Meeting, Pa.) to allow uninterrupted movement of the animal without disruption of infusion lines. Hyperinsulinemia was initiated by intravenous infusion of insulin (10 mU/kg/min at a flow rate of 4 μL/min). Blood was sampled from arterial lines in 7 minute intervals and analyzed with a Beckman Glucose analyzer II (Beckman Coulter, Fullerton, Calif.). Euglycemia was maintained by variable infusion of 20% dextrose. Steady state was achieved approximately 90 minutes after initiating hyperinsulinemia and maintained for 30 minutes. Glucose infusion rates were calculated as the average glucose infusion rate during the 30 minute steady state. Additional blood samples were taken before initiating hyperinsulinemia and at the end of the clamp for analysis of insulin and free fatty acids.

Zucker fa/fa rat = experiment: Myriocin in non-diabetic insulin resistance model, Zucker fa/fa rat; format: in vivo
[2] = treatment starting at week 8, vs vehicle
[3] = clamp, dexamethasone with or without myriocin pretreatment
[4] = Dexamethasone-treated (Saline or Myriocin)

## CCCCCCC(=O)CCCCCC/C=C/C[C@@H](O)[C@H](O)[C@@](N)(CO)C(=O)O [Myriocin]
[1]; ZDF rats
  age until which the improvement in blood glucose persisted: at least 16 weeks
  ceramides in liver, soleus and serum: reduced levels of the sphingolipid in all these tissues
[1]; ZDF rats and lean controls, myriocin for up to 6 weeks
  tolerability: well-tolerated
[1]; male ZDF rats, myriocin 0.3 mg/kg IP every other day (FIG. 4 legend)
  glucose homeostasis: markedly improved glucose homeostasis
[1]; rat, in vivo
  side effects: no apparent side effects
[1]; treatment starting at week 8
  onset of diabetes: prevented the onset of diabetes
[1]; [2]
  plasma glucose levels: reduced
  triglyceride levels: reduced
Soleus muscles; 1 mM linoleate
  linoleate effects on 2-DOG uptake: did not alter linoleate effects
  linoleate effects on DAG accumulation: did not alter linoleate effects
Soleus muscles; 1 mM palmitate
  DAG in palmitate-treated muscles: without affecting DAG
  palmitate effect on insulin-stimulated 2-deoxyglucose uptake: completely negated the antagonistic effects of palmitate
  palmitate-induced ceramide accumulation: prevented palmitate-induced ceramide accumulation
Sprague dawley rats; [3]
  2-deoxyglucose uptake into skeletal muscle / insulin resistance in skeletal muscle: partially blocked
  insulin-induced suppression of hepatic glucose output: completely prevented
Sprague dawley rats; clamp, n=4 per group, p<0.05
  insulin-responsiveness (glucose infusion rate, hepatic glucose output, whole body glucose uptake; FIG. 1E-G): significantly restored insulin-responsiveness
Sprague dawley rats; [4]
  Insulin, During Clamp: 5.4 ± 1.4 ng/mL
  FFA: 176 ± 34 µM
  Glucose, Before Clamp: 137.0 ± 2.1 mg/dL
  Insulin, Before Clamp: 2.34 ± 0.49 ng/mL
Sprague dawley rats; Dexamethasone: Control
  Insulin, During Clamp: 6.4 ± 0.5 ng/mL
  FFA: 258 ± 29 µM
  Glucose, Before Clamp: 123.6 ± 7.7 mg/dL
  Insulin, Before Clamp: 2.05 ± 0.25 ng/mL
Zucker fa/fa rat
  glucose homeostasis: improved glucose homeostasis
  insulin levels: lowered insulin levels
